What is called logP is the decadic logarithm of the partition coefficient of the neutral form, usually between octanol and water.

Data on 12 molecules can be found in the OPERA property sets (Mansouri et al. 2018).

The structures appear in SMILES notation.

Consider `COc1c(OC)c(OC(C)=O)c2ccccc2c1OC(C)=O`, for which the log partition coefficient (logP) turned out to be 2.39.
With `COc1c(OC)c(OC(C)=O)c2cc(F)ccc2c1OC(C)=O` the figure was 2.75.
Regarding `COc1c(OC)c(OC(C)=O)c2cc(C#N)ccc2c1OC(C)=O`, the log partition coefficient (logP) turned out to be 2.28.
Then `COc1c(OC)c(OC(C)=O)c2c(Cl)cccc2c1OC(C)=O`, with 3.16.
As for `COc1c(OC)c(OC(C)=O)c2c(OC)cccc2c1OC(C)=O`, the logP was determined as 2.43.
Turning to `COc1c(OC)c(OC(C)=O)c2cc(Br)ccc2c1OC(C)=O`, the logP is 3.39.
For `COc1c(OC)c(OC(C)=O)c2c(C#N)cccc2c1OC(C)=O`, the log partition coefficient (logP) was 2.51.
Then `COc1c(OC)c(OC(C)=O)c2cc(C)ccc2c1OC(C)=O`, with 2.86.
Then `COc1ccc2c(OC(C)=O)c(OC)c(OC)c(OC(C)=O)c2c1`, with 2.39.
`COc1c(OC)c(OC(C)=O)c2cc(Cl)ccc2c1OC(C)=O`: the logP stood at 3.26.
Then `COc1c(OC)c(OC(=O)C(C)C)c2ccccc2c1OC(=O)C(C)C`, with 4.61; and `COc1c(OC)c(OC(=O)C(C)(C)C)c2ccccc2c1OC(=O)C(C)(C)C`, with 5.69.
